Measurements reported in US8314098B2, “Pyrazolo-pyrimidine compounds” (Ajinomoto Co., Inc., priority 2008, dated 2012).

Experiments:
TNF-α = TNF-α production inhibition in macrophages derived from mouse abdomen (IFN-γ/SAC stimulation, ELISA); type: cell-based; settings: Macrophage; mouse (Balb/c) abdominal macrophages, 100 ng/mL mouse IFN-γ + 0.05% SAC, overnight; TFA salts tested where prepared as such; read-out: TNF-α-Inhibitory Activity IC50
Experimental: (§1) One milliliter each of a 3% (w/v) thioglycolate solution was intraperitoneally administered to mice (female Balb/c mice), the abdominal cells of each mouse were recovered after 5 or 6 days from the administration of the thioglycolate solution and the adhesive cells were collected and used in the exaluation procedures. To a culture medium containing such adhesive cells, there were added 100 ng/mL of mouse interferon-γ and a 0.05% (v/v) liquid containing killed cells derived from Staphylococcus aureus Cowan I strain (SAC) and a candidate compound and then the mixture was cultivated overnight. After the completion of the cultivation, the survival ratios were determined, there were quantitatively determined the quantities of IL-12p70 (the complex of IL-12p35 and p40) and IL-12p40 or TNF-α according to the ELISA assays while making use of the recovered supernatant of the culture medium and the 50% production-inhibitory concentration (IC50) was calculated for each case (see Table 1 and Tables 1-9 for IL-12p70 and TNF-α and Tables 1 to 10 for IL-12p40).

[1] = test system: IL-12p70 (the complex of IL-12p35 and p40); test: IL-12p70 production inhibition in macrophages derived from mouse abdomen (IFN-γ/SAC stimulation, ELISA); type: cell-based; settings: Macrophage; mouse (Balb/c) abdominal macrophages, 100 ng/mL mouse IFN-γ + 0.05% SAC, overnight; TFA salts tested where prepared as such; read-out: IL-12p70-Inhibitory Activity IC50
Summary of the method: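 Thioglycolate-elicited adherent peritoneal macrophages from female Balb/c mice were collected 5–6 days after dosing. Cells were stimulated overnight with 100 ng/mL mouse IFN-γ plus 0.05% (v/v) killed S. aureus Cowan I, with compound present. IL-12p70, IL-12p40 and TNF-α in supernatants were measured by ELISA and IC50s derived, with cell survival also checked.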

IL-12p40 = IL-12p40 production inhibition in macrophages derived from mouse abdomen (IFN-γ/SAC stimulation, ELISA); type: cell-based; settings: Macrophage; mouse (Balb/c) abdominal macrophages, 100 ng/mL mouse IFN-γ + 0.05% SAC, overnight
Experimental: as §1

mouse enteritis model = test: Inflammation-inhibitory action in mouse enteritis model (immigration of IL-10-/- cells), weight of large intestine; type: in vivo
Description: The method for establishing the mouse enteritis model by the immigration of IL-10−/−cells is, for instance, disclosed in Gastroenterology. 2009 February; 136(2): 564-74.e2. Epub 2008 Oct. 7.
The following method was used for the determination of the weight of intestinal tract as an indication of the drug efficacy: On the final day of the autopsy, the large intestine extending from the anus to immediately before the blind gut was surgically excised, the contents of the intestinal tract were washed away with physiological saline, the moisture adhered thereto was roughly removed and then the weight thereof was determined.
The inflammation-inhibitory effect of Compound 1 on the mouse enteritis model was evaluated using this evaluation system and the results obtained were plotted on FIG. 1.

[2] = test system: IL-12p70 (the complex of IL-12p35 and p40); test: IL-12p70 production inhibition in whole blood of mouse (IFN-γ/SAC stimulation, ELISA); type: cell-based; settings: mouse (Balb/c) whole blood, EDTA, 100 ng/mL mouse IFN-γ + 1.25% SAC, overnight; TFA salts tested where prepared as such
Experimental: The blood was recovered from the mice (female Balb/c mice) (containing added EDTA) and it was used for the evaluation. To a cell culture medium, there were added 100 ng/mL of mouse interferon-γ, 1.25% (v/v) of a liquid containing killed cells derived from Staphylococcus aureus Cowan I strain (SAC) and a candidate compound, the resulting mixture was diluted to a volume equivalent to the blood and then the diluted medium was cultivated overnight. After the completion of the cultivation, the amount of IL-12p70 (the complex of IL-12p35 and p40) was quantitatively determined according to the ELISA assays while making use of the recovered supernatant of the culture medium and the 50% production-inhibitory concentrations (IC50) were calculated for Compounds 38, 80, 82, 83, 84, 85, 87, 90 and 91. (see Table 3).

| IC50 (TNF-α) | IC50 [1] | IC50 (IL-12p40) | IC50 [2] | SMILES | control effect on weight of the large intestine (mouse enteritis model; mouse enteritis model, 30 mg/kg once a day) | weight of the large intestine increased due to the immigration of IL-10-/- cells (mouse enteritis model; mouse enteritis model, 3, 10, 30 mg/kg, FIG. 1) |
| --- | --- | --- | --- | --- | --- | --- |
| > 10 µM | 141 nM | 136 nM | – | Cc1cccc(/C=N/Nc2cc(N3CCOCC3)n3nccc3n2)c1 [Compound 9, N-(3-methyl-benzylidene)-N′-(7-morpholin-4-yl-pyrazolo-[1,5-a]pyrimidin-5-yl)-hydrazine] | – | – |
| > 10 µM | 8.4 nM | 11.3 nM | 880 nM | Cc1cccc(/C=N/Nc2cc(N3CCOCC3)n3nc(-c4ccncc4)cc3n2)c1 [Compound 83, N-(3-methyl-benzylidene)-N′-(7-morpholin-4-yl-2-pyridin-4-yl-pyrazolo[1,5-a]pyrimidin-5-yl)-hydrazine] | significant control effect | controlled in a dose of Compound 83-dependent manner |
| – | 47 nM | 70 nM | 1000 nM | Cc1cccc(/C=N/Nc2cc(N3CCOCC3)n3nc(-c4ccncn4)cc3n2)c1 [Compound 119, N-(3-methyl-benzylidene)-N-(7-morpholin-4-yl-2-pyrimidin-4-yl-pyrazolo[1,5-a]pyrimidin-5-yl)-hydrazine] | – | – |
| – | 79 nM | 150 nM | 840 nM | Cc1cccc(/C=N/Nc2cc(N3CC4C[C@H]3CO4)n3nc(-c4ccncc4)cc3n2)c1 [Compound 121, N-(3-methyl-benzylidene)-N′-[7-(2-oxo-5-azabicyclo-[2.2.1]hept-5-yl)-2-pyridin-4-yl-pyrazolo[1,5-a]pyrimidin-5-yl]-hydrazine] | – | – |
| – | 56 nM | 97.8 nM | 280 nM | C(=N\Nc1cc(N2CCOCC2)n2nc(-c3ccncc3)cc2n1)/c1ccc2cc[nH]c2c1 [Compound 117, N-(1H-indol-6-yl-methylidene)-N′-(7-morpholin-4-yl-2-pyridin-4-yl-pyrazolo[1,5-a]pyrimidin-5-yl)-hydrazine] | – | – |
| > 10 µM | 4.1 nM | – | 3200 nM | C(=N\Nc1cc(N2CCOCC2)n2nc(-c3cccnc3)cc2n1)/c1c[nH]c2ccccc12 [Compound 82, N-(1H-indol-3-yl-methylidene)-N′-(7-morpholin-4-yl-2-pyridin-3-yl-pyrazolo[1,5-a]pyrimidin-5-yl)-hydrazine] | – | – |
